In experiment [1] the target is Serine/threonine-protein kinase pim-1 (Homo sapiens, UniProt P11309). The experiment is described as follows: Inhibition of Pim1 kinase.
Experiment [2] concerns the target Dual specificity mitogen-activated protein kinase kinase 2 (Homo sapiens, UniProt P36507). Briefly: Inhibition of MEK2 kinase.
In experiment [3] the target is Dual specificity mitogen-activated protein kinase kinase 1 (Homo sapiens, UniProt Q02750). The experiment is described as follows: Inhibition of MEK1 kinase.
Experiment [4] has as its target Serine/threonine-protein kinase pim-2 (Homo sapiens, UniProt Q9P1W9). Briefly: Inhibition of Pim2 kinase.

Serine/threonine-protein kinase pim-1, sequence (P11309 whole entry): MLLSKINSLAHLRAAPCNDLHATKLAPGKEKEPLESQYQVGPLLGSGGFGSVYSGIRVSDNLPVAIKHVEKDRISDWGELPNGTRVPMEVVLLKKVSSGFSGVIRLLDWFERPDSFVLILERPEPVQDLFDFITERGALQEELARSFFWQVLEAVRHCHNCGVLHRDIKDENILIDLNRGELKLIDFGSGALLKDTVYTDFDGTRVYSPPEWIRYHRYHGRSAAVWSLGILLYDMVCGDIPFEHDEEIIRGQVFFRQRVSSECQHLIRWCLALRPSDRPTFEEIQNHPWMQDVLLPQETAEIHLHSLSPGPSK
Serine/threonine-protein kinase pim-2, sequence (Q9P1W9 whole entry): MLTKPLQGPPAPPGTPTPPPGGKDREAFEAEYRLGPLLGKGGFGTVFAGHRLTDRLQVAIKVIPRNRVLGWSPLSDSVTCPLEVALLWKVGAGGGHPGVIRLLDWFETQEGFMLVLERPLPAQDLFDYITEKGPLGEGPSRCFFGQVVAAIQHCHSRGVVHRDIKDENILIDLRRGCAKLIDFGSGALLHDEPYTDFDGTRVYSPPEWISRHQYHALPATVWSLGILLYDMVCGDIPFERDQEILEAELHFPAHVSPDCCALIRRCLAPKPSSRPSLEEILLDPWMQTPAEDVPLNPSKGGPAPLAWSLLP
Dual specificity mitogen-activated protein kinase kinase 1, sequence (Q02750 whole entry): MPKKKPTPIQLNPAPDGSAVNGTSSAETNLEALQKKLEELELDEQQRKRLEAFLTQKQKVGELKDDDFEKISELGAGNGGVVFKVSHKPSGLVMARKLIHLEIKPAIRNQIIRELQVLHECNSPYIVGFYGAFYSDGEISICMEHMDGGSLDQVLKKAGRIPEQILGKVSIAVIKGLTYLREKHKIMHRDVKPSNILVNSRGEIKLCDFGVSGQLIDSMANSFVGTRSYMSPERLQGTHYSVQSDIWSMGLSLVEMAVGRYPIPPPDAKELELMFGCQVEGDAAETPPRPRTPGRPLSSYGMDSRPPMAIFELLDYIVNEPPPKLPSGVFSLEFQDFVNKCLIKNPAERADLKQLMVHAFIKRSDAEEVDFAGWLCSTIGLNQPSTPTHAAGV
Dual specificity mitogen-activated protein kinase kinase 2, sequence (P36507 whole entry): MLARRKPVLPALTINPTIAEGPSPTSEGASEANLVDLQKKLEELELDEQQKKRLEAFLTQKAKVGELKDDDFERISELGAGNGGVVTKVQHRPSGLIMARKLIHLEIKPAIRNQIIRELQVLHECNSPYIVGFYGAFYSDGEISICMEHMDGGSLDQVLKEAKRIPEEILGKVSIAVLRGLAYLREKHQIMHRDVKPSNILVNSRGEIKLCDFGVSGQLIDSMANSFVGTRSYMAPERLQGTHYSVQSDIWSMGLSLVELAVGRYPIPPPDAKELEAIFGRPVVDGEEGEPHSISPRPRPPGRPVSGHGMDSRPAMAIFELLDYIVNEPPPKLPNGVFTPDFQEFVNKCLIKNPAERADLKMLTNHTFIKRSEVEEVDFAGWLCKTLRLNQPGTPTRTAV

The compound `N#Cc1c(-c2cccnc2)c2c([nH]c1=O)-c1ccccc1SC2` yielded an IC50 in experiment [1] of 4.79 µM. `N#Cc1c(-c2ccncc2)c2c([nH]c1=O)-c1ccccc1CC2` yielded an IC50 in experiment [1] of more than 20 µM.

In turn, `COc1ccc(-c2c3c([nH]c(=O)c2C#N)-c2ccccc2OC3)cc1` yielded a half-maximal inhibitory concentration (IC50) in experiment [1] of more than 20 µM. In experiment [1], `N#Cc1c(-c2ccccc2)cc(-c2ccc(O)cc2)nc1N` returned an IC50 of 4.41 µM.

In turn, `Cc1ccc(O)c(-c2cc(-c3ccccc3)c(C#N)c(=O)[nH]2)c1` registered an IC50 in experiment [1] of 0.34 µM.

Turning to `N#Cc1c(-c2ccncc2)c2c([nH]c1=O)-c1ccccc1OC2`, the midpoint of inhibition in experiment [1], the IC50, lay at 20 µM.

Take `N#Cc1c(-c2ccccn2)c2c([nH]c1=O)-c1ccccc1OC2`: the IC50 in experiment [1] is more than 20 µM.

On to `CCOC(=O)C1=C2C(=O)Oc3ccccc3C2N(C)C(=O)C1` (stereo not given), for which the IC50 in experiment [1] was more than 20 µM.

In experiment [1], `N#Cc1c(-c2ccccc2Cl)c2c([nH]c1=O)-c1ccccc1OC2` displayed an IC50 of 1.23 µM. In experiment [1], `CCc1ccc(O)c(-c2cc(-c3cccc(Cl)c3)c(C#N)c(=O)[nH]2)c1` showed an IC50 of 1.03 µM.

In experiment [1], `Nc1n[nH]c2nc(-c3cc(Br)ccc3O)cc(-c3ccccc3)c12` yielded a half-inhibitory concentration (IC50) of 1.77 µM. The same measure, in the same setting: the value for `COc1ccc(-c2cc(C(F)(F)F)c(C#N)c(=O)[nH]2)cc1Br` was 1.14 µM; that for `N#Cc1c(-c2ccc(F)cc2)c2c([nH]c1=O)-c1ccccc1SC2` was more than 20 µM; that for `N#Cc1c(-c2ccc(O)cc2)cc(-c2ccccc2O)[nH]c1=O` was 0.43 µM.

In the case of `N#Cc1c(-c2ccc(Cl)cc2)c2c([nH]c1=O)-c1ccccc1OC2`, the concentration for half-maximal inhibition (IC50) in experiment [1] came out at 0.92 µM. Compared with the last compound, the IC50 is about 2.1-fold higher. For the compound `N#Cc1c(-c2ccccc2)cc(-c2cc(Br)ccc2O)[nH]c1=O`, the half-maximal inhibitory concentration (IC50) in experiment [2], in experiment [3] and in experiment [4] was more than 20 µM throughout. With `N#Cc1c(-c2ccccc2Cl)c2c([nH]c1=O)-c1ccccc1SC2`, in experiment [1], the IC50 turned out to be 20 µM. Consider `Cc1ccc(O)c(-c2cc(-c3ccccc3)[nH]c(=O)c2C#N)c1`, for which, in experiment [1], half-maximal inhibition (IC50) required 0.37 µM.

The term IC50 denotes the concentration that inhibits the measured activity by half. High values mean a need for much substance, low ones inhibition by little substance.

(Values after ChEMBL document CHEMBL1139114, “Identification and structure-activity relationships of substituted pyridones as inhibitors of Pim-1 kinase” (Bioorg Med Chem Lett, 2007).)
